According to US20240150340A1, “CDK Inhibitors And Their Use As Pharmaceuticals” (Prelude Therapeutics Incorporated, priority 2022, published 2024):

Experiments:
CDK2/Cyclin E2 = biological target: T1, CDK2/Cyclin E2 (Homo sapiens, UniProt P24941); assay: CDK2/CyclinE2 Enzymatic Activity Assay (TR-FRET); format: biochemical; details: ATP 1 mM final, read-out: CDK2_E1 IC50
T1 construct: Recombinant protein complex CDK2/Cyclin E2, expressed from insect cell, was purchased from ProQinase
How it was run: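 Recombinant insect-cell CDK2/Cyclin E2 (1 nM) phosphorylated ULight-4E-BP1 (50 nM) with 1 mM ATP in HEPES pH 7.4 buffer, after 20 min compound preincubation; MgCl2 (10 mM) started the 45 min reaction at 37° C. Europium anti-phospho-4E-BP1 TR-FRET read; 9-dose IC50 by 4-parameter fit.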

CDK4/Cyclin D1 = biological target: T2, CDK4/Cyclin D1 (Homo sapiens, UniProt P11802); assay: CDK4/CyclinD1 Enzymatic Activity Assay (TR-FRET); format: biochemical; details: ATP 2 mM final, read-out: CDK4_D1 IC50
T2 construct: purchased ProQinase; host or cells: insect cell
Description: CDK4/CyclinD1 Enzymatic Activity Assay
The inhibitory activity of compounds was evaluated in vitro using TR-FRET assay with white 384-well low volume microplate (Greiner Bio-One). CDK4/Cyclin D1 catalyzed phosphorylation of peptide in the presence and absence of compounds was measured and used in IC50 determination. Recombinant protein complex CDK4/Cyclin D1, expressed from insect cell, was purchased from ProQinase. Testing compounds were dissolved in DMSO at 1 mM and tested in 9-dose IC50 mode. The reaction mixture was prepared by mixing CDK4/CyclinD1 (1 nM final), ULight-4E-BP1 (100 nM final, Perkinelmer, TRF0128-D), and ATP (2 mM final) in assay buffer (20 mM of HEPES pH 7.4, 1 mM of EGTA, 0.05% BSA, 0.005% Tween 20, and 1 mM TCEP). The compound of interest in DMSO was added to each well in 3-fold serial dilution by the dispenser (TECAN D300E) to make a 9.9 μL of reaction mixture. After 20 minutes preincubation at room temperature, 0.1 μL MgCl2 (10 mM final) was added to initiate the reaction. Following a 45-minute incubation at 37° C., the reaction was stopped by addition of 2 μL of quenching buffer consisting of Lance detection buffer (Perkinelmer CR97-100C), LANCE Ultra Europium-anti-P-4E-BP1 (Perkinelmer, TRF0216-D), EDTA, and incubated at room temperature for additional 60 minutes in dark. The reaction signal was measured by Envision multimode plate reader (PerkinElmer, 2102-0010). IC50 values were determined by fitting the data to the standard 4 parameters with Hill Slope using GraphPad Prism software.

OVCAR3 p-RB = assay: pRB ICW Assay in OVCAR3 Cells; format: cell-based; details: Homo sapiens, OVCAR-3, incubated with compound for 2 hours
How it was run: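 In-Cell Western on OVCAR3: phospho-RB antibody signal with DRAQ5 counterstain read at 700 and 800 nm after fixation. Compounds were applied for 2 h at 37° C. as 9-point ½-log dilutions in duplicate; 10 μM reference compound defined full inhibition.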

T2 sequence (P11802 whole entry): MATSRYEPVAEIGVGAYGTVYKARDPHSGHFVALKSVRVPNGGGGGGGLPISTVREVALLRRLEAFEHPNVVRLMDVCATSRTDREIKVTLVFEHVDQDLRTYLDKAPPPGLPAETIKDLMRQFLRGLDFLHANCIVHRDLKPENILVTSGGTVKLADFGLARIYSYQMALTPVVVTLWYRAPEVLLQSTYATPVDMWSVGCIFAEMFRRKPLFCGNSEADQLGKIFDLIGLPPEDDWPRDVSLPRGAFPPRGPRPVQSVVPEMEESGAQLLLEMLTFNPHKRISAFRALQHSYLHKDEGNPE
T2 sequence (P24385 whole entry partner): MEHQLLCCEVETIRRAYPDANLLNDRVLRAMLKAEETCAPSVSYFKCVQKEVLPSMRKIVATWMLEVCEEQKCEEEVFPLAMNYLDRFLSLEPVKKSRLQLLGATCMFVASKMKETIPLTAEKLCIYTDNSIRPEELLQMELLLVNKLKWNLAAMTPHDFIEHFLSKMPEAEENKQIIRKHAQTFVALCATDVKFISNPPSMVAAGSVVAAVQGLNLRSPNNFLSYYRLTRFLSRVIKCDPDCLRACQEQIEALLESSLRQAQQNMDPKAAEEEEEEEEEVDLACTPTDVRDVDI

## Cc1sc(-c2nc(N[C@H]3CCN(S(=O)(=O)c4cnn(C)c4)C[C@H]3C)ncc2C(F)(F)F)cc1C(N)=O [Example 23, 2-methyl-5-(2-(((3R,4S)-3-methyl-1-((1-methyl-1H-pyrazol-4-yl)sulfonyl)piperidin-4-yl)amino)-5-(trifluoromethyl)pyrimidin-4-yl)thiophene-3-carboxamide]
CDK2/Cyclin E2
  IC50: ≤ 100 nM
CDK4/Cyclin D1
  IC50: ≤ 100 nM
OVCAR3 p-RB
  IC50: ≤ 100 nM

## Cc1sc(-c2nc(N[C@H]3CCN(S(=O)(=O)c4cn(C)cn4)C[C@H]3C)ncc2C(F)(F)F)cc1C(N)=O [Example 24, 2-methyl-5-(2-(((3R,4S)-3-methyl-1-((1-methyl-1H-imidazol-4-yl)sulfonyl)piperidin-4-yl)amino)-5-(trifluoromethyl)pyrimidin-4-yl)thiophene-3-carboxamide]
CDK2/Cyclin E2
  IC50: ≤ 100 nM
CDK4/Cyclin D1
  IC50: ≤ 100 nM
OVCAR3 p-RB
  IC50: ≤ 100 nM

## Cc1sc(-c2nc(N[C@H]3CCN(S(=O)(=O)c4c[nH]cn4)C[C@H]3C)ncc2C(F)(F)F)cc1C(N)=O [Example 25, 5-(2-(((3R,4S)-1-((1H-imidazol-4-yl)sulfonyl)-3-methylpiperidin-4-yl)amino)-5-(trifluoromethyl)pyrimidin-4-yl)-2-methylthiophene-3-carboxamide]
CDK2/Cyclin E2
  IC50: ≤ 100 nM
CDK4/Cyclin D1
  IC50: ≤ 100 nM
OVCAR3 p-RB
  IC50: 100 to 500 nM

## Cc1cnc(-c2nc(N[C@H]3CCN(S(=O)(=O)c4cnn(C)c4)C[C@H]3F)ncc2C(F)(F)F)s1 [Example 26, N-((3R,4S)-3-fluoro-1-((1-methyl-1H-pyrazol-4-yl)sulfonyl)piperidin-4-yl)-4-(5-methylthiazol-2-yl)-5-(trifluoromethyl)pyrimidin-2-amine]
CDK2/Cyclin E2
  IC50: ≤ 100 nM
CDK4/Cyclin D1
  IC50: ≤ 100 nM
OVCAR3 p-RB
  IC50: ≤ 100 nM

## Cc1cnc(-c2nc(N[C@@H]3CCN(S(=O)(=O)c4cnn(C)c4)C[C@H]3F)ncc2C(F)(F)F)s1 [Example 27, N-((3R,4R)-3-fluoro-1-((1-methyl-1H-pyrazol-4-yl)sulfonyl)piperidin-4-yl)-4-(5-methylthiazol-2-yl)-5-(trifluoromethyl)pyrimidin-2-amine]
CDK2/Cyclin E2
  IC50: ≤ 100 nM
CDK4/Cyclin D1
  IC50: ≤ 100 nM
OVCAR3 p-RB
  IC50: 100 to 500 nM

## Cc1cnc(-c2nc(N[C@H]3CCN(S(=O)(=O)c4cn(C)cn4)C[C@H]3F)ncc2C(F)(F)F)s1 [Example 28, N-((3R,4S)-3-fluoro-1-((1-methyl-1H-imidazol-4-yl)sulfonyl)piperidin-4-yl)-4-(5-methylthiazol-2-yl)-5-(trifluoromethyl)pyrimidin-2-amine]
CDK2/Cyclin E2
  IC50: ≤ 100 nM
CDK4/Cyclin D1
  IC50: ≤ 100 nM
OVCAR3 p-RB
  IC50: ≤ 100 nM

## Cc1cnc(-c2nc(N[C@@H]3CCN(S(=O)(=O)c4cn(C)cn4)C[C@H]3F)ncc2C(F)(F)F)s1 [Example 29, N-((3R,4R)-3-fluoro-1-((1-methyl-1H-imidazol-4-yl)sulfonyl)piperidin-4-yl)-4-(5-methylthiazol-2-yl)-5-(trifluoromethyl)pyrimidin-2-amine]
CDK2/Cyclin E2
  IC50: ≤ 100 nM
CDK4/Cyclin D1
  IC50: ≤ 100 nM
OVCAR3 p-RB
  IC50: 100 to 500 nM

## Cc1sc(-c2nc(N[C@H]3CCN(S(=O)(=O)c4cnn(C)c4)C[C@H]3F)ncc2C(F)(F)F)cc1C#N [Example 30, 5-(2-(((3R,4S)-3-fluoro-1-((1-methyl-1H-pyrazol-4-yl)sulfonyl)piperidin-4-yl)amino)-5-(trifluoromethyl)pyrimidin-4-yl)-2-methylthiophene-3-carbonitrile]
CDK2/Cyclin E2
  IC50: ≤ 100 nM
CDK4/Cyclin D1
  IC50: ≤ 100 nM
OVCAR3 p-RB
  IC50: ≤ 100 nM

## Cc1sc(-c2nc(N[C@H]3CCN(S(=O)(=O)c4cn(C)cn4)C[C@H]3F)ncc2C(F)(F)F)cc1C#N [Example 31, 5-(2-(((3R,4S)-3-fluoro-1-((1-methyl-1H-imidazol-4-yl)sulfonyl)piperidin-4-yl)amino)-5-(trifluoromethyl)pyrimidin-4-yl)-2-methylthiophene-3-carbonitrile]
CDK2/Cyclin E2
  IC50: ≤ 100 nM
CDK4/Cyclin D1
  IC50: ≤ 100 nM
OVCAR3 p-RB
  IC50: ≤ 100 nM

## Cc1cnc(-c2nc(NC3CCN(S(=O)(=O)c4cn(C)cn4)CC3)ncc2C(F)(F)F)s1 [Example 32, N-(1-((1-methyl-1H-imidazol-4-yl)sulfonyl)piperidin-4-yl)-4-(5-methylthiazol-2-yl)-5-(trifluoromethyl)pyrimidin-2-amine]
CDK2/Cyclin E2
  IC50: ≤ 100 nM
CDK4/Cyclin D1
  IC50: ≤ 100 nM
OVCAR3 p-RB
  IC50: ≤ 100 nM

## CC(O)c1sc(-c2nc(NC3CCN(S(=O)(=O)c4cn(C)cn4)CC3)ncc2C(F)(F)F)cc1C#N (stereo not drawn) [Example 33, 2-(1-hydroxyethyl)-5-(2-((1-((1-methyl-1H-imidazol-4-yl)sulfonyl)piperidin-4-yl)amino)-5-(trifluoromethyl)pyrimidin-4-yl)thiophene-3-carbonitrile]
CDK2/Cyclin E2
  IC50: ≤ 100 nM
CDK4/Cyclin D1
  IC50: ≤ 100 nM
OVCAR3 p-RB
  IC50: ≤ 100 nM

## CC(O)c1sc(-c2nc(N[C@H]3CCN(S(=O)(=O)c4cnn(C)c4)C[C@H]3F)ncc2C(F)(F)F)cc1C#N (stereo partly drawn) [Example 34, 5-(2-(((3R,4S)-3-fluoro-1-((1-methyl-1H-pyrazol-4-yl)sulfonyl)piperidin-4-yl)amino)-5-(trifluoromethyl)pyrimidin-4-yl)-2-(1-hydroxyethyl)thiophene-3-carbonitrile]
CDK2/Cyclin E2
  IC50: ≤ 100 nM
CDK4/Cyclin D1
  IC50: ≤ 100 nM
OVCAR3 p-RB
  IC50: ≤ 100 nM

## CC(O)c1sc(-c2nc(N[C@H]3CCN(S(=O)(=O)c4cn(C)cn4)C[C@H]3F)ncc2C(F)(F)F)cc1C#N (stereo partly drawn) [Example 35, 5-(2-(((3R,4S)-3-fluoro-1-((1-methyl-1H-imidazol-4-yl)sulfonyl)piperidin-4-yl)amino)-5-(trifluoromethyl)pyrimidin-4-yl)-2-(1-hydroxyethyl)thiophene-3-carbonitrile]
CDK2/Cyclin E2
  IC50: ≤ 100 nM
CDK4/Cyclin D1
  IC50: ≤ 100 nM
OVCAR3 p-RB
  IC50: ≤ 100 nM

## CC(O)c1sc(-c2nc(N[C@@H]3CCN(S(=O)(=O)c4cnn(C)c4)C[C@H]3F)ncc2C(F)(F)F)cc1C#N (stereo partly drawn) [Example 36, 5-(2-(((3R,4R)-3-fluoro-1-((1-methyl-1H-pyrazol-4-yl)sulfonyl)piperidin-4-yl)amino)-5-(trifluoromethyl)pyrimidin-4-yl)-2-(1-hydroxyethyl)thiophene-3-carbonitrile]
CDK2/Cyclin E2
  IC50: ≤ 100 nM
CDK4/Cyclin D1
  IC50: ≤ 100 nM
OVCAR3 p-RB
  IC50: ≤ 100 nM

## CC(O)c1sc(-c2nc(N[C@@H]3CCN(S(=O)(=O)c4cn(C)cn4)C[C@H]3F)ncc2C(F)(F)F)cc1C#N (stereo partly drawn) [Example 37, 5-(2-(((3R,4R)-3-fluoro-1-((1-methyl-1H-imidazol-4-yl)sulfonyl)piperidin-4-yl)amino)-5-(trifluoromethyl)pyrimidin-4-yl)-2-(1-hydroxyethyl)thiophene-3-carbonitrile]
CDK2/Cyclin E2
  IC50: ≤ 100 nM
CDK4/Cyclin D1
  IC50: ≤ 100 nM
OVCAR3 p-RB
  IC50: ≤ 100 nM

## C[C@@H]1CN(S(=O)(=O)c2cnn(C)c2)CC[C@@H]1Nc1ncc(C(F)(F)F)c(-c2cc(C#N)c(CC(C)(C)O)s2)n1 [Example 38, 2-(2-hydroxy-2-methylpropyl)-5-(2-(((3R,4S)-3-methyl-1-((1-methyl-1H-pyrazol-4-yl)sulfonyl)piperidin-4-yl)amino)-5-(trifluoromethyl)pyrimidin-4-yl)thiophene-3-carbonitrile]
CDK2/Cyclin E2
  IC50: ≤ 100 nM
CDK4/Cyclin D1
  IC50: 100 to 500 nM
OVCAR3 p-RB
  IC50: 100 to 500 nM

## Cn1cnc(S(=O)(=O)N2CCC(Nc3ncc(C(F)(F)F)c(-c4cc(C#N)c(CC(C)(C)O)s4)n3)CC2)c1 [Example 39, 2-(2-hydroxy-2-methylpropyl)-5-(2-((1-((1-methyl-1H-imidazol-4-yl)sulfonyl)piperidin-4-yl)amino)-5-(trifluoromethyl)pyrimidin-4-yl)thiophene-3-carbonitrile]
CDK2/Cyclin E2
  IC50: ≤ 100 nM
CDK4/Cyclin D1
  IC50: ≤ 100 nM
OVCAR3 p-RB
  IC50: ≤ 100 nM

## C[C@@H]1CN(S(=O)(=O)c2cn(C)cn2)CC[C@@H]1Nc1ncc(C(F)(F)F)c(-c2cc(C#N)c(CC(C)(C)O)s2)n1 [Example 40, 2-(2-hydroxy-2-methylpropyl)-5-(2-(((3R,4S)-3-methyl-1-((1-methyl-1H-imidazol-4-yl)sulfonyl)piperidin-4-yl)amino)-5-(trifluoromethyl)pyrimidin-4-yl)thiophene-3-carbonitrile]
CDK2/Cyclin E2
  IC50: ≤ 100 nM
CDK4/Cyclin D1
  IC50: 100 to 500 nM
OVCAR3 p-RB
  IC50: 100 to 500 nM

## Cn1cc(S(=O)(=O)N2CC[C@H](Nc3ncc(C(F)(F)F)c(-c4cc(C#N)c(CC(C)(C)O)s4)n3)[C@H](F)C2)cn1 [Example 41, 5-(2-(((3R,4S)-3-fluoro-1-((1-methyl-1H-pyrazol-4-yl)sulfonyl)piperidin-4-yl)amino)-5-(trifluoromethyl)pyrimidin-4-yl)-2-(2-hydroxy-2-methylpropyl)thiophene-3-carbonitrile]
CDK2/Cyclin E2
  IC50: ≤ 100 nM
CDK4/Cyclin D1
  IC50: ≤ 100 nM
OVCAR3 p-RB
  IC50: ≤ 100 nM
